In patent US4140849A, “Kanamycin C derivatives” (Zaidan Hojin Biseibutsu Kagaku Kenkyu Kai, priority 1977, dated 1979):
In brackets after ≈: the same amount, converted by molar mass. Read-outs that look alike come from different tables or passages of the source.

Assays:
[1] = tested on: Klebsiella pneumoniae PCI 602; assay: Minimum inhibitory concentration, serial dilution on nutrient agar; format: cell-based; details: PCI602, 37° C., 18 hours, read-out: Minimum Inhibitory Concentrations
Experimental: (§1) The minimum inhibitory concentrations (mcg/ml.) of 1-N-(L-4-amino-2-hydroxybutyryl)-kanamycin C (abbreviated as AHB-KC), 1-N-(L-4-amino-2-hydroxybutyryl)-3'-deoxykanamycin C (abbreviated as AHB-DKC) and 1-N-(L-4-amino-2-hydroxybutyryl)-3',4'-dideoxykanamycin C (abbreviated as AHB-DDKC) against various microorganisms were determined according to serial dilution method on nutrient agar medium at 37° C., the estimation being effected after 18 hours incubation. For comparison, the minimum inhibitory concentrations of 1-N-(L-4-amino-2-hydroxybutyryl)-kanamycin A (amikacin) was also determined in the same manner as described above.

[2] = tested on: Escherichia coli LA 290 R55; assay: as above; format: cell-based; details: LA290R55, 18 h, read-out: Minimum Inhibitory Concentrations
Experimental: as §1

[3] = tested on: Pseudomonas aeruginosa TI-13; assay: as above; format: cell-based; details: read-out: Minimum Inhibitory Concentrations
Experimental: as §1

[4] = tested on: Escherichia coli K-12 ML 1410 R81; assay: as above; format: cell-based; details: 18 h, read-out: Minimum Inhibitory Concentrations
Experimental: as §1

[5] = tested on: Escherichia coli K-12 ML 1630; assay: as above; format: cell-based; details: K12ML1630, 37° C., 18 hours, read-out: Minimum Inhibitory Concentrations
Experimental: as §1

[6] = tested on: Escherichia coli K-12 ML 1410; assay: as above; format: cell-based; details: K12ML1410, 37° C., 18 hours, read-out: Minimum Inhibitory Concentrations
Experimental: as §1

[7] = tested on: Escherichia coli JR 66/W677; assay: as above; format: cell-based; details: read-out: Minimum Inhibitory Concentrations
Experimental: as §1

[8] = tested on: Escherichia coli K-12 ML 1629; assay: as above; format: cell-based; details: K12ML1629, 37° C., 18 hours, read-out: Minimum Inhibitory Concentrations
Experimental: as §1

[9] = tested on: Pseudomonas aeruginosa No. 12; assay: as above; format: cell-based; details: read-out: Minimum Inhibitory Concentrations
Experimental: as §1

[10] = tested on: Escherichia coli K-12; assay: as above; format: cell-based; details: K12, 37° C., 18 hours, read-out: Minimum Inhibitory Concentrations
Experimental: as §1

[11] = tested on: Pseudomonas aeruginosa H 11; assay: as above; format: cell-based; details: H11, 37° C., 18 hours, read-out: Minimum Inhibitory Concentrations
Experimental: as §1

[12] = tested on: Escherichia coli K-12 R5; assay: as above; format: cell-based; details: K12R5, 18 h, read-out: Minimum Inhibitory Concentrations
Experimental: as §1

[13] = tested on: Escherichia coli LA 290 R56; assay: as above; format: cell-based; details: LA290R56, 18 h, read-out: Minimum Inhibitory Concentrations
Experimental: as §1

[14] = tested on: Staphylococcus aureus FDA 209P; assay: as above; format: cell-based; details: FDA209P, 37° C., 18 hours, read-out: Minimum Inhibitory Concentrations
Experimental: as §1

[15] = tested on: Klebsiella pneumoniae 22 No. 3038; assay: as above; format: cell-based; details: read-out: Minimum Inhibitory Concentrations
Experimental: as §1

[16] = tested on: Escherichia coli W 677; assay: as above; format: cell-based; details: W677, 37° C., 18 hours, read-out: Minimum Inhibitory Concentrations
Experimental: as §1

[17] = tested on: Pseudomonas aeruginosa A3; assay: as above; format: cell-based; details: read-out: Minimum Inhibitory Concentrations
Experimental: as §1

[18] = tested on: Escherichia coli NIHJ; assay: as above; format: cell-based; details: 37° C., 18 hours, read-out: Minimum Inhibitory Concentrations
Experimental: as §1

[19] = tested on: Mycobacterium smegmatis ATCC 607; assay: as above; format: cell-based; details: Mycolicibacterium smegmatis, ATCC607, 37° C., 18 hours, read-out: Minimum Inhibitory Concentrations
Experimental: as §1

[20] = tested on: Pseudomonas aeruginosa GN 315; assay: as above; format: cell-based; details: GN315, 37° C., 18 hours, read-out: Minimum Inhibitory Concentrations
Experimental: as §1

[21] = tested on: Pseudomonas aeruginosa 99; assay: as above; format: cell-based; details: 37° C., 18 hours, read-out: Minimum Inhibitory Concentrations
Experimental: as §1

[22] = tested on: Escherichia coli LA 290 R64; assay: as above; format: cell-based; details: LA290R64, 18 h, read-out: Minimum Inhibitory Concentrations
Experimental: as §1

[23] = LD50 upon intravenous injection in mice; details: mouse, in vivo, estimated
[24] = tested on: 6'-acetyltransferase; details: cited from earlier work; for acetylation by a 6'-acetyltransferase: enzyme obtained from aminoglycoside-resistant strains, such as Pseudomonas aeruginosa GN315
[25] = tested on: resistant bacteria producing aminoglycoside 3'-phosphotransferase; details: cited from earlier work
[26] = tested on: resistant bacteria producing the 2"-nucleotidyltransferase; details: prior compounds; cited from earlier work
[27] = tested on: resistant bacteria producing the aminoglycoside 6'-acetyltransferase; details: cited from earlier work
[28] = TI13, Pseudomonas aeruginosa TI-13, nutrient agar, 37° C., 18 hours
[29] = JR66/W677, Escherichia coli JR 66/W677, nutrient agar, 37° C., 18 hours
[30] = Pseudomonas aeruginosa No. 12, nutrient agar, 37° C., 18 hours
[31] = Klebsiella pneumoniae 22 No. 3038, nutrient agar, 37° C., 18 hours
[32] = Pseudomonas aeruginosa A3, nutrient agar, 37° C., 18 hours

Row | SMILES | MIC [1] [µg/mL] | MIC [2] [µg/mL] | MIC [3, 28] [µg/mL] | MIC [4] [µg/mL] | MIC [5] [µg/mL] | MIC [6] [µg/mL] | MIC [7, 29] [µg/mL] | MIC [8] [µg/mL] | MIC [10] [µg/mL] | MIC [11] [µg/mL] | MIC [12] [µg/mL] | MIC [13] [µg/mL] | MIC [14] [µg/mL] | MIC [16] [µg/mL] | MIC [18] [µg/mL] | MIC [19] [µg/mL] | MIC [20] [µg/mL] | MIC [21] [µg/mL] | MIC [22] [µg/mL] | growth inhibition of resistant bacteria producing the 2"-nucleotidyltransferase [26] | further results
1 | NCCC(O)C(=O)NC1CC(N)C(OC2OC(CO)CCC2N)C(O)C1OC1OC(CO)C(O)C(N)C1O [AHB-DDKC, 1-N-(L-4-amino-2-hydroxybutyryl)-3',4'-dideoxykanamycin C] | 6.25 (≈ 11.3 µM) | 12.5 (≈ 22.6 µM) | 100 (≈ 181 µM) | 25 (≈ 45.2 µM) | 12.5 (≈ 22.6 µM) | 25 (≈ 45.2 µM) | 25 (≈ 45.2 µM) | 6.25 (≈ 11.3 µM) | 12.5 (≈ 22.6 µM) | 100 (≈ 181 µM) | 12.5 (≈ 22.6 µM) | 6.25 (≈ 11.3 µM) | 12.5 (≈ 22.6 µM) | 12.5 (≈ 22.6 µM) | 12.5 (≈ 22.6 µM) | 6.25 (≈ 11.3 µM) | 100 (≈ 181 µM) | 100 (≈ 181 µM) | 12.5 (≈ 22.6 µM) |  | MIC [9, 30]: 100 µg/mL (≈ 181 µM); MIC [15, 31]: 25 µg/mL (≈ 45.2 µM); MIC [17, 32]: 12.5 µg/mL (≈ 22.6 µM)
2 | NCCC(O)C(=O)NC1CC(N)C(OC2OC(CO)C(O)C(O)C2N)C(O)C1OC1OC(CO)C(O)C(N)C1O [AHB-KC, 1-N-(L-4-amino-2-hydroxybutyryl)-kanamycin C] | 3.13 (≈ 5.34 µM) | 12.5 (≈ 21.3 µM) | 50 (≈ 85.4 µM) | 12.5 (≈ 21.3 µM) | 12.5 (≈ 21.3 µM) | 25 (≈ 42.7 µM) | 25 (≈ 42.7 µM) | 6.25 (≈ 10.7 µM) | 12.5 (≈ 21.3 µM) | 100 (≈ 171 µM) | 6.25 (≈ 10.7 µM) | 6.25 (≈ 10.7 µM) | 6.25 (≈ 10.7 µM) | 12.5 (≈ 21.3 µM) | 6.25 (≈ 10.7 µM) | 3.13 (≈ 5.34 µM) | 50 (≈ 85.4 µM) | 100 (≈ 171 µM) | 12.5 (≈ 21.3 µM) |  | LD50 [23]: > 400 mg/kg; MIC [9, 30]: 50 µg/mL (≈ 85.4 µM); MIC [15, 31]: 12.5 µg/mL (≈ 21.3 µM); MIC [17, 32]: 12.5 µg/mL (≈ 21.3 µM)
3 | NCCC(O)C(=O)NC1CC(N)C(OC2OC(CN)C(O)C(O)C2N)C(O)C1OC1OC(CO)C(O)C(N)C1O [1-N-(L-4-amino-2-hydroxybutyryl)-kanamycin B] |  |  |  |  |  |  |  |  |  |  |  |  |  |  |  |  |  |  |  |  | acetylation by a 6'-acetyltransferase [24]: acetylated
4 | NCC[C@H](O)C(=O)N[C@@H]1C[C@H](N)[C@@H](O[C@H]2O[C@H](CN)[C@@H](O)[C@H](O)[C@H]2O)[C@H](O)[C@H]1O[C@H]1O[C@H](CO)[C@@H](O)[C@H](N)[C@H]1O [Amikacin, 1-N-(L-4-amino-2-hydroxybutyryl)-kanamycin A, reference compound] | 0.39 (≈ 0.666 µM) | 0.78 (≈ 1.33 µM) |  | 1.56 (≈ 2.66 µM) | 0.78 (≈ 1.33 µM) | 0.78 (≈ 1.33 µM) |  | 0.78 (≈ 1.33 µM) | 0.78 (≈ 1.33 µM) | 12.5 (≈ 21.3 µM) | 0.39 (≈ 0.666 µM) | 0.39 (≈ 0.666 µM) | 0.39 (≈ 0.666 µM) | < 0.2 | 0.78 (≈ 1.33 µM) | < 0.2 | 100 (≈ 171 µM) | 6.25 (≈ 10.7 µM) | 0.39 (≈ 0.666 µM) |  | MIC ([3]; Pseudomonas aeruginosa, TI13, 18 h): 3.13 µg/mL (≈ 5.34 µM); MIC ([7]; Escherichia coli, JR66/W677, 18 h): 1.56 µg/mL (≈ 2.66 µM); MIC ([9]; Pseudomonas aeruginosa, NO.12, 18 h): 3.13 µg/mL (≈ 5.34 µM); MIC ([15]; Klebsiella pneumoniae, 22NO.3038, 18 h): 1.56 µg/mL (≈ 2.66 µM); MIC ([17]; Pseudomonas aeruginosa, A3, 18 h): 3.13 µg/mL (≈ 5.34 µM); acetylation by a 6'-acetyltransferase [24]: acetylated
5 | NCC1OC(OC2C(N)CC(N)C(OC3OC(CO)C(O)C(N)C3O)C2O)C(N)CC1O (stereo not drawn) [3'-deoxykanamycin B] |  |  |  |  |  |  |  |  |  |  |  |  |  |  |  |  |  |  |  | do not inhibit the growth | activity against resistant bacteria producing aminoglycoside 3'-phosphotransferase [25]: active against the resistant bacteria; growth inhibition of resistant bacteria producing the aminoglycoside 6'-acetyltransferase [27]: do not inhibit the growth
6 | NCC1CCC(N)C(OC2C(N)CC(N)C(OC3OC(CO)C(O)C(N)C3O)C2O)O1 (stereo not drawn) [3',4'-dideoxykanamycin B] |  |  |  |  |  |  |  |  |  |  |  |  |  |  |  |  |  |  |  | do not inhibit the growth | activity against resistant bacteria producing aminoglycoside 3'-phosphotransferase [25]: active against the resistant bacteria; growth inhibition of resistant bacteria producing the aminoglycoside 6'-acetyltransferase [27]: do not inhibit the growth
7 | NCCC(O)C(=O)NC1CC(N)C(OC2OC(CO)C(O)CC2N)C(O)C1OC1OC(CO)C(O)C(N)C1O [AHB-DKC, 1-N-(L-4-amino-2-hydroxybutyryl)-3'-deoxykanamycin C] | 3.13 (≈ 5.49 µM) | 12.5 (≈ 21.9 µM) | 50 (≈ 87.8 µM) | 12.5 (≈ 21.9 µM) | 12.5 (≈ 21.9 µM) | 6.25 (≈ 11 µM) | 12.5 (≈ 21.9 µM) | 6.25 (≈ 11 µM) | 6.25 (≈ 11 µM) | 50 (≈ 87.8 µM) | 6.25 (≈ 11 µM) | 6.25 (≈ 11 µM) | 6.25 (≈ 11 µM) | 6.25 (≈ 11 µM) | 6.25 (≈ 11 µM) | 12.5 (≈ 21.9 µM) | 50 (≈ 87.8 µM) | 100 (≈ 176 µM) | 3.13 (≈ 5.49 µM) |  | LD50 [23]: > 400 mg/kg; MIC [9, 30]: 50 µg/mL (≈ 87.8 µM); MIC [15, 31]: 6.25 µg/mL (≈ 11 µM); MIC [17, 32]: 6.25 µg/mL (≈ 11 µM)
8 | NC1CCC(CO)OC1OC1C(N)CC(N)C(OC2OC(CO)C(O)C(N)C2O)C1O (stereo not drawn) [3',4 '-dideoxykanamycin C, 3',4'-dideoxykanamycin C] |  |  |  |  |  |  |  |  |  |  |  |  |  |  |  |  |  |  |  | not able to inhibit the growth | 
9 | NC1CC(O)C(CO)OC1OC1C(N)CC(N)C(OC2OC(CO)C(O)C(N)C2O)C1O (stereo not drawn) [3'-deoxykanamycin C] |  |  |  |  |  |  |  |  |  |  |  |  |  |  |  |  |  |  |  | not able to inhibit the growth | 
10 | NC1CC(N)C(OC2OC(CO)C(O)C(N)C2O)C(O)C1OC1OC(CO)C(O)C(O)C1N (stereo not drawn) [kanamycin C] |  |  |  |  |  |  |  |  |  |  |  |  |  |  |  |  |  |  |  | not able to inhibit the growth | inactivation by the 6'-acetyltransferase ([24]; see co-pending applications): cannot be inactivated
